We go through 19 molecules from patent publication EP0181129B1, “N6-substituted deoxyribose analogs of adenosines” (WARNER-LAMBERT COMPANY, priority 1984, dated 1986).

Where two headings read alike, the source gives them in different places.

For one assay, the target named is T1, adenosine A1 receptor (Rattus norvegicus, UniProt P25099).
T1 construct: brain minus cerebellum and brainstem from male Long Evans rats (150-200 g) was homogenized; from tissue; host or cells: rat whole brain minus cerebellum and brainstem, membrane homogenate
T1 sequence (P25099 1-326): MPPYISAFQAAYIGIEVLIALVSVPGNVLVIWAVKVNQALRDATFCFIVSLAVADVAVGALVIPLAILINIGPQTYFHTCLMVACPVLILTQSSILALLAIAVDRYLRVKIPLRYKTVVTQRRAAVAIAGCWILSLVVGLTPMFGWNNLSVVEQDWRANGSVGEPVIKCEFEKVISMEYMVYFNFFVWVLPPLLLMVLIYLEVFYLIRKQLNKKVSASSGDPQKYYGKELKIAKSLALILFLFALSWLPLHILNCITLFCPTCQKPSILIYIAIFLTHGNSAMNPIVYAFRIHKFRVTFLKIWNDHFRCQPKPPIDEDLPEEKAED
The assay is described as follows: Adenosine Receptor Binding - A1 Receptor Affinity (RBA1), [3H]-CHA displacement. The following applies: rat whole brain membranes, one hour at 25°C. As for the experimental part: While brain minus cerebellum and brainstem from male Long Evans rats (150-200 g) was homogenized in 30 volumes of ice-cold 0.05 M Tris-CHI buffer pH 7.7 using a Brinkman Polytron PT-10, (setting number 6 for 20 seconds) and centrifuged for ten minutes at 20,000 x g (Sorvall RC-2), 4°C. The supernatant was discarded, and the pellet was resuspended and centrifuged as before. The pellet was resuspended in 20 ml Tris-HCI buffer containing two International Units/ml of adenosine deaminase (Sigma type III from calf intestinal mucosa), incubated at 37°C for 30 minutes, then subsequently at 0°C for ten minutes. The homogenate was again centrifuged, and the final pellet was resuspended in ice-cold 0.05 M Tris-HCI buffer pH 7.7 to a concentration of 20 mg/ml original wet tissue weight and used immediately.
Tissue homogenate (10 mg/ml) was incubated in 0.05 M Tris-HCI buffer pH 7.7 containing 1.0 nM (^3H]-N^e-cyclohexyladenosine ([^3H]-CHA) with or without tests agents in triplicate for one hour at 25°C. Incubation volume was 2 ml. Unbound [^3H]-CHA was separated by rapid filtration under reduced pressure through Whatman glass fiber (GF/B) filters. The filters were rinsed three times with 5 ml of ice cold 0.05 M Tris-HCI buffer pH 7.7. The radio-labeled ligand retained on the filter was measured by liquid scintillation spectrophotometry after shaking the filters for one hour or longer on a mechanical shaker in 10 ml of Beckman Ready-Solv HP scintillation cocktail.
Nonspecific binding was defined as the binding which occurred in the presence of 1 mM theophylline. […] The Scatchard plot was calculated by linear regression of the line obtained by plotting the amount of radioligand bound (pmoles/gram of tissue) [formula] Since the amount of radioligand bound was a small fraction of the total amount added, free radioligand was defined as the concentration (nM) of radioligand added to the incubation mixture. The Hill coefficient was calculated by linear regression of the line obtained by plotting the log of the bound radioligand vs the log of the [formula] The maximal number of binding sites (Bmax) was calculated from the Scatchard plot.

The target in a further assay is T2, adenosine A2 receptor (Rattus norvegicus, UniProt P30543).
T2 construct: Brains were thawed and then kept on ice while the striata were dissected out; tissue Pel-Freez (Rogers, Arkansas); host or cells: rat striatum, membranes
T2 sequence (P30543 whole entry): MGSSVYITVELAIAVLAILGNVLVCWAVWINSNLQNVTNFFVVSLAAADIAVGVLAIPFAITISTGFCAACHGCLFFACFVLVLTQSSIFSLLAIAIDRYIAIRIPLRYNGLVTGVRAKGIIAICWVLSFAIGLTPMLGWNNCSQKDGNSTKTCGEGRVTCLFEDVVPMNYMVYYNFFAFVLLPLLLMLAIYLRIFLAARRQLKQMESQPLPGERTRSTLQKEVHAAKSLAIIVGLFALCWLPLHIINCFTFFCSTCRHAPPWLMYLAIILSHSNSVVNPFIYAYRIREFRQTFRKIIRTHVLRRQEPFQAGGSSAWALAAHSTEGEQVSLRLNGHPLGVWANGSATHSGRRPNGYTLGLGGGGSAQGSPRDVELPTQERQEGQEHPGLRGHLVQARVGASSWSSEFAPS
The assay is described as follows: Adenosine Receptor Binding - A2 Receptor Affinity (RBA2), [3H]NECA displacement. The following applies: 4 nM [3H]NECA with 50 nM N6-cyclopentyladenosine, rat striatal membranes, 60 minutes at 25°C; read-out: Receptor Binding RBA—2. Here is the method:
Brains from 200-500 g mixed sex Sprague-Dawley rats were purchased from Pel-Freez (Rogers, Arkansas). Fresh brains from male Long-Evans hooded rats (Blue Spruce Farms, Altamont, NY) gave essentially indentical results. Brains were thawed and then kept on ice while the striata were dissected out. Striata were disrupted in 10 vol of ice-cold 50 mM Tris.HCI (pH 7.7 at 25°C, pH 8.26 at 5°C) (Tris) for 30 seconds in a Polytron PT―10 (Brinkmann) at setting 5. The suspension was centrifuged at 50,000 xg for ten minutes, the supernatant discarded, the pellet resuspended in 10 vol ice-cold Tris as above, recentrifuged, resuspended at 1 g/5 ml, and stored in plastic vials at -70°C (stable for at least six months). When needed, tissue was thawed at room temperature, disrupted in a Polytron, and kept on ice until used.
All incubations were for 60 minutes at 25°C in 12x75 mm glass tubes containing 1 ml Tris with 5 mg original tissue weight of rat weight of rat striatal membranes, 4 nM [^3H]-N-ethyl adenosine-5'-carboxamide ([^3H]NECA), 50 nM N^6-cyclopentyladenosine (to eliminate A1 receptor binding), 10 mM MgCl2, 0.1 units/ml, of adenosine deaminase and 1% dimethylsulfoxide. N^6-Cyclopentyladenosine was dissolved at 10 mM in 0.02 N HCI and diluted in Tris. Stock solutions and dilutions of N^6-cyclopentyladenosine could be stored at -20°C for several months. Test compounds were dissolved at 10 mM in dimethylsulfoxide or the same day as the experiment, and diluted in dimethylsulfoxide to 100x the final incubation concentration. Control incubations received an equal volume (10 µl) of dimethylsulfoxide; the resulting concentration of dimethylsulfoxide had no effect on binding. [^3H]NECA was diluted to 40 nM in Tris. The membrane suspension (5 mg/0.79 ml) contained sufficient MgCl2 and adenosine deaminase to give 10 mM and 0.1 units/ml, respectively, final concentration in the incubation. […] After all additions, the rack of tubes was vortexed, and the tubes were then incubated for 60 min at 25°C in a shaking water bath. The rack of tubes was vortexed an additonal time halfway through the incubation.
Incubations were terminated by filtration through 2.4 cm GF/B filters under reduced pressure. Each tube was filtered as follows: the contents of the tube were poured onto the filter, 4 ml of ice-cold Tris were added to the tube and the contents poured onto the filter, and the filter was washed twice with 4 ml of ice-cold Tris. The filtration was complete in about twelve seconds. Filters were put in scintillation vials, 8 ml of Formula 947 scintillation fluid added, and the vials left overnight, shaken, and counted in a liquid scintillation counter at 40% efficiency.
Nonspecific binding was defined as binding in the presence of […] N^6-cyclopentyladenosine, and specific binding was defined as total binding minus nonspecific binding. The IC50 was calculated by weighted nonlinear least squares curve-fitting to the mass-action equation. [formula] • where Y is cpm bound T is cpm total binding without drug S is cpm specific binding without drug D is the concentration of drug • and K is the IC50 of the drug Weighting factors were calculated under the assumption that the standard deviation was proportional to the predicted value of Y. Nonspecific binding was treated as a very large (infinite) concentration of drug in the computer analysis.

The next assay deals with male Swiss-Webster mice. The assay is described as follows: Antiwrithing (AW) test, acetic acid induced writhing. Type of assay: in vivo. The following applies: Mus musculus, ip; administered intraperitoneally to mice; read-out: ED50 (dose necessary to suppress writhing by 50% relative to vehicle controls).
Setting [1] is: 1.0 nM [3H]-CHA, read-out: Receptor Binding RBA—1.
Setting [2] is: Receptor Binding RBA—1, 1.0 nM [3H]-CHA.

With `CC(=O)O[C@@H]1[C@H](OC(C)=O)[C@@H](C)O[C@H]1n1cnc2c(NC3CCCc4ccccc43)ncnc21` (some centres unmarked) [Example 22, N^6-1-Tetralinyl-2' ,3'-di-O-acetyl-5'-deoxyadenosine], the IC50 at adenosine A1 receptor (setting [1]) came out at 0.607 µM.
In the case of `C[C@H](Cc1ccccc1)Nc1ncnc2c1ncn2[C@@H]1O[C@H](C)[C@@H](O)[C@H]1O` [Example 3], the values for the IC50 on adenosine A1 receptor (setting [1]) and on adenosine A2 receptor were 0.04 µM and 5.7 µM, respectively.
`O[C@@H]1[C@H](O)[C@@H](CCl)O[C@H]1n1cnc2c(NC3CCCCC3)ncnc21` [Example 17, N^6-[Cyclohexyl]-5' -deoxy-5' -chloro-adenosine]: the IC50 on adenosine A1 receptor (setting [1]) stood at 0.002 µM; on adenosine A2 receptor, 2.7 µM.
In the same order, the values of `O[C@@H]1[C@H](O)[C@@H](CCl)O[C@H]1n1cnc2c(NC3CCc4ccccc43)ncnc21` (some centres unmarked) [Example 14, N^6-[1-Indanyl]-5'-deoxy-5'-chloroadenosine] are 0.218 µM and 8.65 µM.
Take `C[C@H]1O[C@@H](n2cnc3c(NC4CCc5ccccc54)ncnc32)[C@H](O)[C@@H]1O` (some centres unmarked) [Example 2, N^6-[1-Indanyl]-5'-deoxyadenosine]: the IC50 came to 1.68 µM at adenosine A1 receptor (setting [1]) and 21.2 µM at adenosine A2 receptor.
For `C[C@@H](Cc1ccccc1)Nc1ncnc2c1ncn2[C@@H]1O[C@H](C)[C@@H](O)[C@H]1O` [Example 4, (S)-N^6-[Phenylisopropyl]-5'-deoxyadenosine] the same measures were 0.556 µM and 20 µM.
For `CSC[C@H]1O[C@@H](n2cnc3c(N[C@H](C)Cc4ccccc4)ncnc32)[C@H](O)[C@@H]1O` [Example 7, (R)-N^6[Phenylisopropyl]-5'-deoxy-5'-thiomethyladenosine], the IC50 at adenosine A1 receptor (setting [2]) was determined as 0.051 µM; at adenosine A2 receptor it was 6.3 µM.
As for `C[C@@H](Cc1ccccc1)Nc1ncnc2c1ncn2[C@@H]1O[C@H](CCl)[C@@H](O)[C@H]1O` [Example 16, (S)-N^6-[Phenylisopropyl]-5'-deoxy-5'-chloroadenosine], the IC50 was determined as 0.035 µM at adenosine A1 receptor (setting [1]) and 7.9 µM on adenosine A2 receptor.
In the same order, the values of `O[C@@H]1[C@H](O)[C@@H](CCl)O[C@H]1n1cnc2c(NC3CCCC3)ncnc21` [Example 18, N^6-[Cyclopentyl]-5'-deoxy-5'-chloroadenosine] are 0.0012 µM and 2.8 µM.
For the molecule `CSC[C@H]1O[C@@H](n2cnc3c(NC4CCc5ccccc54)ncnc32)[C@H](O)[C@@H]1O` (some centres unmarked) [Example 12, N^6-[1-Indanyl]-5'-deoxy-5'-thiomethyladenosine], the figures for the IC50 at adenosine A1 receptor (setting [2]) and at adenosine A2 receptor were 1.49 µM and 58.2 µM, respectively. Besides, the ED50 in the assay on male Swiss-Webster mice was 3 mg/kg.
Turning to `CC(=O)O[C@@H]1[C@H](OC(C)=O)[C@@H](C)O[C@H]1n1cnc2c(NCc3cccc4ccccc34)ncnc21` [Example 21, N^6-a-Naphthylmethyl-2',3'-di-O-acetyl-5'-deoxyadenosine], on adenosine A1 receptor (setting [1]), the IC50 was determined as 2.52 µM.
As for `C[C@H](Cc1ccccc1)Nc1ncnc2c1ncn2[C@@H]1O[C@H](CCl)[C@@H](O)[C@H]1O` [Example 15, (R)-N^6-[Phenylisopropyl]-5'-deoxy-5'-chloro-adenosine], the IC50 on adenosine A1 receptor (setting [1]) turned out to be 0.003 µM; at adenosine A2 receptor it was 1.6 µM. Besides, the ED50 in the assay on male Swiss-Webster mice came to 1.8 mg/kg.
In the case of `CSC[C@H]1O[C@@H](n2cnc3c(NC4CCCC4)ncnc32)[C@H](O)[C@@H]1O` [Example 10, N^6-[Cyclopentyl]-5'-deoxy-5'-thiomethyladenosine], the IC50 at adenosine A1 receptor (setting [1]) was 0.013 µM; at adenosine A2 receptor, 7.2 µM.
With `CSC[C@H]1O[C@@H](n2cnc3c(N[C@@H](C)Cc4ccccc4)ncnc32)[C@H](O)[C@@H]1O` [Example 8, (S)-N^6-[Phenylisopropyl]-5'-deoxy-5'-thiomethyladenosine], the IC50 was found to be 0.7 µM at adenosine A1 receptor (setting [2]) and 44 µM at adenosine A2 receptor.
Regarding `C[C@H]1O[C@@H](n2cnc3c(NC4CCCCC4)ncnc32)[C@H](O)[C@@H]1O` [Example 6, N^6-[Cyclohexyl]-5'-deoxyadenosine], the IC50 at adenosine A1 receptor (setting [1]) is 0.052 µM; on adenosine A2 receptor, 21.4 µM.
In the same order, the values of `O[C@@H]1[C@H](O)[C@@H](CCl)O[C@H]1n1cnc2c(NCC(c3ccccc3)c3ccccc3)ncnc21` [Example 13, N^6-[2,2-Diphenylethyl]-5'-deoxy-5'-chloroadenosine] are 0.053 µM and 0.24 µM.
In the same order, the values of `C[C@H]1O[C@@H](n2cnc3c(NCC(c4ccccc4)c4ccccc4)ncnc32)[C@H](O)[C@@H]1O` [Example 1, N^s-[2,2-Diphenylethyl]-5'-deoxyadenosine] are 0.227 µM and 1.11 µM.
With `CSC[C@H]1O[C@@H](n2cnc3c(NCC(c4ccccc4)c4ccccc4)ncnc32)[C@H](O)[C@@H]1O` [Example 11, N^6-[2,2-Diphenyl]-5'-deoxy-5'-thiomethyladenosine], the IC50 is 0.66 µM at adenosine A1 receptor (setting [2]) and 2 µM at adenosine A2 receptor.
Regarding `CSC[C@H]1O[C@@H](n2cnc3c(NC4CCCCC4)ncnc32)[C@H](O)[C@@H]1O` [Example 9, N^6-[Cyclohexyl]-5'-deoxy-5'-thiomethyladenosine], the results for the IC50 on adenosine A1 receptor (setting [2]) and at adenosine A2 receptor were 0.009 µM and 7.4 µM, respectively.
